Results from PubChem BioAssay (NCI).
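Exposure lasted 48 hours, with cells grown in 96-well plates and compounds tested at five concentrations. Here, GI50 denotes the concentration required for 50% inhibition of growth. TGI denotes the concentration required for complete inhibition of growth.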

What was measured:
Experiment in all cases: NCI-60 cell line screen, 48 h
LOX IMVI melanoma = test system: LOX IMVI melanoma
UACC-62 melanoma = test system: UACC-62 melanoma
MALME-3M melanoma = test system: MALME-3M melanoma
EKVX NSCLC = test system: EKVX NSCLC
RXF 393 renal = test system: RXF 393 renal
SK-OV-3 ovarian = test system: SK-OV-3 ovarian
HCT-15 colon = test system: HCT-15 colon
TK-10 renal = test system: TK-10 renal
MOLT-4 leukemia = test system: MOLT-4 leukemia
HL-60(TB) leukemia = test system: HL-60(TB) leukemia

Row | SMILES | GI50 (LOX IMVI melanoma) [µM] | TGI (LOX IMVI melanoma) [µM] | GI50 (UACC-62 melanoma) [µM] | TGI (UACC-62 melanoma) [µM] | GI50 (MALME-3M melanoma) [µM] | TGI (MALME-3M melanoma) [µM] | GI50 (EKVX NSCLC) [µM] | TGI (EKVX NSCLC) [µM] | GI50 (RXF 393 renal) [µM] | TGI (RXF 393 renal) [µM] | GI50 (SK-OV-3 ovarian) [µM] | TGI (SK-OV-3 ovarian) [µM] | GI50 (HCT-15 colon) [µM] | TGI (HCT-15 colon) [µM] | GI50 (TK-10 renal) [µM] | TGI (TK-10 renal) [µM] | TGI (MOLT-4 leukemia) [µM] | TGI (HL-60(TB) leukemia) [µM] | GI50 (MOLT-4 leukemia) [µM] | GI50 (HL-60(TB) leukemia) [µM]
1 | CC/C=C\C[C@H](O)C/C=C1/C(=O)C=C[C@@H]1C/C=C\CCCC(N)=O | 0.35 | 1.69 | 1.36 | 3.36 | 2.06 | 5.23 | 4.29 | 15.7 | 1.94 | 3.69 | 3.96 | 12.8 | 1.74 | 5.69 | 3.16 | 6.95 |  |  |  | 
2 | CN(C)CN1C(=O)S/C(=C2\C(=O)N(CN(C)C)c3ccccc32)C1=O |  | 73.2 |  | > 100 |  |  |  | > 100 |  | 75 |  | > 100 |  | > 100 |  | > 100 | 1.93 | 37.2 |  | 
3 | CCC(=O)N1C/C(=C/c2ccc(OC)cc2)C(=O)/C(=C/c2ccc(OC)cc2)C1 | 0.95 | 2.28 | 1.6 | 3.01 | 2.47 | 6.26 |  |  | 1.72 | 3.17 | 4.61 | 27.9 | 2.03 | 5.31 | 2.72 | 6.54 | > 100 | 53.1 | 3.31 | 2.98
4 | CCCN(CCCCC(NC(C)=O)C(=O)NCc1ccccc1)C(=O)NC (stereo not given) |  | > 100 |  | > 100 |  | > 100 |  | > 100 |  | > 100 |  | > 100 |  | > 100 |  | > 100 | > 100 |  |  | 
5 | Cc1ccc(C)c(NC(=O)/C(=N\NC(N)=S)C(C#N)c2ccccc2)c1 (stereo not given) |  |  |  | > 100 |  | > 100 |  | > 100 |  |  |  | > 100 |  | > 100 |  | > 100 | > 100 | > 100 |  | 
6 | CCCCCCCCCCCCC(SCCNC(=O)CCNC(=O)C(O)C(C)(C)COP(=O)(O)OP(=O)(O)OCC1OC(n2cnc3c(N)ncnc32)C(O)C1OP(=O)(O)O)C(=O)NCC(N)=O (stereo not given) |  | > 100 |  | > 100 |  | > 100 |  | > 100 |  | > 100 |  | 98.2 |  | > 100 |  | > 100 |  | > 100 |  | 
7 | O=C(O)c1nnsc1COCc1ccccc1 |  | > 100 |  | > 100 |  | > 100 |  | > 100 |  | > 100 |  | > 100 |  | > 100 |  | > 100 | > 100 |  |  | 
8 | CCCN(CCC)c1c([N+](=O)[O-])cc(S(N)(=O)=O)cc1[N+](=O)[O-] |  | 31.6 |  | 32.8 |  | 33 |  | 37.5 |  |  |  | 31.8 |  | 32.2 |  |  | 45.4 |  |  | 
9 | Cc1ccc(S(=O)(=O)ON/N=C2/C3OC3[C@@H]3CCCC[C@H]23)cc1 (stereo not given in full) |  |  |  | > 100 |  | > 100 |  | > 100 |  | > 100 |  |  |  | > 100 |  | > 100 | > 100 | > 100 |  | 
10 | O=C(Nc1ccc(Br)cc1)c1cc(Br)cc(Br)c1O | 3.24 | 10.1 | 2.56 | 15 | 2.15 | 5.63 | 1.76 | 7.38 |  |  | 3.14 | > 100 | 3.2 | 13.5 | 4.2 | > 100 | > 100 |  | 3.83 | 
11 | CC(C)(C)C([O-])=C1C(=O)c2ccccc2C1=O.CC(C)(C)C([O-])=C1C(=O)c2ccccc2C1=O.CC[O-].CC[O-].[Ti+4] | 40.4 | > 100 | 11.9 | 28.8 | 17.3 | 38.5 | 21.7 | 63.9 | 10.8 | 90.3 | 39.9 | > 100 | 29.5 | > 100 |  |  | 61.9 | 67 | 22.4 | 27.1
12 | CC1(C)OC2C(=O)OC(COCc3ccccc3)C2O1 (stereo not given) |  | > 100 |  | > 100 |  | > 100 |  | > 100 |  | > 100 |  |  |  | > 100 |  | > 100 | > 100 | > 100 |  | 
13 | O=C(O)c1[nH]c(C(=O)O)c(CC(F)(F)C(F)(F)C(F)(F)F)c1CC(F)(F)C(F)(F)C(F)(F)F |  | > 100 |  | > 100 |  | > 100 |  | > 100 |  | > 100 |  | > 100 |  | > 100 |  | > 100 |  | > 100 |  | 
14 | NC(N)=N/N=C/c1c(-c2cc(Cl)sc2Cl)nc2n1CCS2 | 8.33 | 15.8 | 8.62 | 16 |  |  | 9.21 | 18.1 | 10.8 | 22.4 |  |  | 9 | 16.6 | 8.65 | 15.8 | 26.8 |  | 10.4 | 
15 | c1c[nH]c(Cc2ncc(Cc3cnc[nH]3)[nH]2)n1 |  | 96.2 |  | 59.5 |  | > 100 |  | > 100 |  |  |  | 86.2 |  | > 100 |  | > 100 | > 100 | 21.5 |  | 
16 | OC1CCC(C2C3CCCCC3C3CCCCC3C2C2CCC(O)CC2)CC1 (stereo not given) |  |  |  | 31.2 |  | 41.7 |  | > 100 |  | 7.06 |  | 31 |  | 6.14 |  | 34.9 | > 100 | 62.2 |  | 
17 | COC(=O)c1ccc(OCc2ccc3oc(=O)c(-c4ccccc4)nc3c2)cc1 |  | > 100 |  |  |  | > 100 |  | > 100 |  |  |  |  |  | > 100 |  | > 100 | > 100 | > 100 |  | 
18 | CN(C)CCNC(=O)c1cccc(CO)c1[N+](=O)[O-] |  |  |  | > 100 |  | > 100 |  |  |  |  |  | > 100 |  | > 100 |  | > 100 | > 100 | > 100 |  | 
19 | COC1C(=O)CCC2(CO2)C1(O)C1(C)OC1CCC(C)C (stereo not given) |  |  |  | > 100 |  | > 100 |  | > 100 |  | > 100 |  | > 100 |  | > 100 |  |  | > 100 | > 100 |  | 
20 | O=C1C=C(c2cc(Br)c(O)c(Br)c2)/C(=C/c2cc(Br)c(O)c(Br)c2)O1 | 14.9 | 43.2 | 16.8 | 38.2 | 41.5 | > 75 | 54.1 | > 75 | 1.82 | 23.6 |  |  | 28.8 | > 75 | 35.8 | > 75 | 51.9 |  | 18.4 | 
